# Experimental data taken from patent publication US20240301319A1, “PERFUMING COMPOSITIONS” (FIRMNICH SA, priority 2017, published 2024).
# Tests used:
# [1] = Volatility of perfuming compounds (Tables 4 to 10), with top/middle/bottom note type; type: physicochemical
# Experimental: In some aspects, the first perfume accord comprises perfuming compounds having a volatility ranging from 70,000 to 100 μg/l in air. In some aspects, perfuming compounds having a volatility ranging from 70,000 to 100 μg/l in air are referred to as “top notes”.
# In some aspects, the second perfume accord comprises perfuming compounds having a volatility ranging from 99 to 50 μg/l in air. In some aspects, perfuming compounds having a volatility ranging from 99 to 50 μg/l in air are referred to as “middle notes”.
# In some aspects, the third perfume accord comprises perfuming compounds having a volatility ranging from 49 to 0.1 μg/l in air. In some aspects, perfuming compounds having a volatility ranging from 49 to 0.1 μg/l in air are referred to as “bottom notes”.
# Tables 4 to 10 describe top, middle and bottom note perfuming compounds for watery, green, fruity, citrus, sweet, gourmand and woody notes respectively.
# [2] = Odor threshold and odor value of perfuming compounds (Tables 4 to 10)
# [3] = Table 6, perfuming compounds having a fruity note
# [4] = Table 6, perfuming compounds having a fruity note, note type by volatility
# [5] = Table 10, perfuming compounds having a woody note, note type by volatility
# [6] = Table 7, citrus note, top, middle or bottom note
# [7] = note type (Top/Middle/Bottom) by volatility, perfuming compounds having a green note
# [8] = perfuming compounds having a green note
# [9] = Table 9, perfuming compounds having a gourmand note, note type by volatility
# [10] = Table 8, perfuming compounds having a sweet note
# [11] = Table 8, perfuming compounds having a sweet note, note type by volatility
compound,measurement,setting,value
"CCOC(=O)C1OC1(C)c1ccccc1 (centres unmarked) [ETHYL 2,3-EPDXY-3-PHENYLBUTANOATE]",Volatility,[1]; [3],12.97 μg/l air
same,Type,[1]; [4],Bottom
same,Odor Threshold,[2]; [3],2.28E−05 μg/l air
same,Odor Value,[2]; [3],5.68E+05
CCCC(O)CCC1C(C)CCC(C)C1(C)C (racemic),Type,[1]; [5],Bottom
same,Volatility,"[1]; Table 10, woody note",3.42 μg/l air
same,Odor Threshold,"[2]; Table 10, woody note",4.05E−04 μg/l air
"C=CC(C)(CCC=C(C)C)OC(C)=O (racemic) [(+−)-1,5-DIMETHYL-1-VINYL-4-HEXENYL ACETATE]",Type,[1]; [4],"TOP (perfuming compounds having a volatility ranging from 70,000 to 100 μg/l in air are referred to as “top notes”)"
same,Type,[1]; [6],Top
same,Type,[1]; [7],Top
same,Volatility (μg/l air),[1]; [8],339.21 μg/l air
same,Odor Threshold (μg/l air),"[2]; Table 7, citrus note",7.40E−02 μg/l air
same,Odor Threshold (μg/l air),[2]; [8],7.40E−02 μg/l air
"CCC=CCC=C/C=C/C(=O)OCC [ETHYL (2E)-2,4,7-DECATRIENOATE]",Volatility,[1]; [3],25.34 μg/l air
same,Type,[1]; [4],Bottom
same,Type,[1]; [7],Bottom
same,Volatility (μg/l air),[1]; [8],25.34 μg/l air
same,Odor Threshold,[2]; [3],1.49E−02 μg/l air
same,Odor Value,[2]; [3],1.70E+03
same,Odor Threshold (μg/l air),[2]; [8],1.49E−02 μg/l air
CC(=O)OCCC1CCCCC1 [2-CYCLOHEXYLETHYL ACETATE],Volatility,"[1]; Table 9, gourmand note",489.45 μg/l air
same,Type,[1]; [9],Top
same,Odor Threshold,"[2]; Table 9, gourmand note",4.49E−02 μg/l air
COc1cc(C=O)ccc1O [4-hydroxy-3-methoxybenzaldehyde],Volatility,[1]; [10],4.24 μg/l air
same,Type,[1]; [11],Bottom
same,Volatility,"[1]; Table 9, gourmand note",4.24 μg/l air
same,Type,[1]; [9],Bottom
same,Odor Threshold,[2]; [10],6.75E−06 μg/l air
same,Odor Value,[2]; [10],6.28E+05
same,Odor Threshold,"[2]; Table 9, gourmand note",6.75E−06 μg/l air
COC(=O)C=C1CCCC1 [methyl cyclopentylideneacetate],Volatility,[1]; [3],1091.46 μg/l air
same,Type,[1]; [4],"TOP (perfuming compounds having a volatility ranging from 70,000 to 100 μg/l in air are referred to as “top notes”)"
CCOC(=O)Cc1ccccc1 [ETHYL PHENYLACETATE],Volatility,[1]; [3],269.77 μg/l air
same,Type,[1]; [4],"TOP (perfuming compounds having a volatility ranging from 70,000 to 100 μg/l in air are referred to as “top notes”)"
CCOc1cc(C=O)ccc1O [3-ethoxy-4-hydroxybenzaldehyde],Volatility,[1]; [10],0.11 μg/l air
same,Type,[1]; [11],Bottom
COc1ccc2ccccc2c1 [2-METHOXYNAPHTHALENE],Odor Threshold,[2]; [10],1.02E−05 μg/l air
same,Odor Value,[2]; [10],5.00E+06
same,Odor Threshold,"[2]; Table 9, gourmand note",1.02E−05 μg/l air
CCCOC(=O)[C@H](C)OC(C)(C)CC,Volatility,[1]; [3],995.16 μg/l air
same,Type,[1]; [4],"TOP (perfuming compounds having a volatility ranging from 70,000 to 100 μg/l in air are referred to as “top notes”)"
CCOC(=O)C1=C(C)C=CCC1(C)C,Volatility,[1]; [3],368.81 μg/l air
same,Type,[1]; [4],"TOP (perfuming compounds having a volatility ranging from 70,000 to 100 μg/l in air are referred to as “top notes”)"
CCCCCC1(C)CCC(C)(C)C1=O (racemic),Volatility,[1]; [3],265.42 μg/l air
same,Type,[1]; [4],"TOP (perfuming compounds having a volatility ranging from 70,000 to 100 μg/l in air are referred to as “top notes”)"
CCOC(=O)C(C)C [ETHYL ISOBUTYRATE],Volatility,[1]; [3],132964.09 μg/l air
same,Type,[1]; [4],"TOP (perfuming compounds having a volatility ranging from 70,000 to 100 μg/l in air are referred to as “top notes”)"
CCCCCCC(C)=O [2-OCTANONE],Volatility,[1]; [3],6639.71 μg/l air
same,Type,[1]; [4],"TOP (perfuming compounds having a volatility ranging from 70,000 to 100 μg/l in air are referred to as “top notes”)"
O=Cc1ccccc1 [BENZALDEHYDE],Volatility,[1]; [10],8207.00 μg/l air
same,Type,[1]; [11],Top
same,Type,[1]; [7],Top
same,Volatility (μg/l air),[1]; [8],8207.00 μg/l air
CCCCCC(C)=O [2-HEPTANONE],Volatility,[1]; [3],26409.73 μg/l air
same,Type,[1]; [4],"TOP (perfuming compounds having a volatility ranging from 70,000 to 100 μg/l in air are referred to as “top notes”)"
"CC(=O)OC(C)(C)Cc1ccccc1 [1,1-DIMETHYL-2-PHENYLETHYL ACETATE]",Volatility,[1]; [3],198.02 μg/l air
same,Type,[1]; [4],"TOP (perfuming compounds having a volatility ranging from 70,000 to 100 μg/l in air are referred to as “top notes”)"
CC/C=C\CCCCCO [(Z)-6-NONEN-1-OL],Volatility (μg/l air),"[1]; Table 4, watery note",6.91 μg/l air
same,Type,"[1]; Table 4, watery note, top, middle or bottom note",bottom (perfuming compounds having a volatility ranging from 49 to 0.1 μg/l in air are referred to as “bottom notes”)
same,Type,[1]; [7],Bottom
same,Volatility (μg/l air),[1]; [8],6.91 μg/l air
C=CCOC(=O)CCCCC [ALLYL HEXANOATE],Volatility,[1]; [3],941.49 μg/l air
same,Type,[1]; [4],"TOP (perfuming compounds having a volatility ranging from 70,000 to 100 μg/l in air are referred to as “top notes”)"
"CC(=O)OCCC(C)CC(C)(C)C (centres unmarked) [3,5,5-TRIMETHYLHEXYL ACETATE]",Volatility,[1]; [3],1461.80 μg/l air
same,Type,[1]; [4],"TOP (perfuming compounds having a volatility ranging from 70,000 to 100 μg/l in air are referred to as “top notes”)"
CCCCCCC(=O)OCC [ethyl heptanoate],Volatility,[1]; [3],3052.89 μg/l air
same,Type,[1]; [4],"TOP (perfuming compounds having a volatility ranging from 70,000 to 100 μg/l in air are referred to as “top notes”)"
CCCc1ccc(OC)cc1 [1-METHOXY-4-PROPYLBENZENE],Volatility,[1]; [3],629.29 μg/l air
same,Type,[1]; [4],"TOP (perfuming compounds having a volatility ranging from 70,000 to 100 μg/l in air are referred to as “top notes”)"
CC(C)=CCC/C(C)=C\CO,Volatility (μg/l air),"[1]; Table 7, citrus note",86.02 μg/l air
same,Type,[1]; [6],Middle
C/C=C(\C)C(=O)OCC/C=C\CC,Type,[1]; [7],Top
same,Volatility (μg/l air),[1]; [8],168.78 μg/l air
"(+−)-(3E)-3-methyl-4-(2,6,6-trimethyl-2-cyclohexen-1-yl)-3-buten-2-one (A) + (+−)-(1E)-1-(2,6,6-trimethyl-2-cyclohexen-1-yl)-1-penten-3-one (B)",Type,[1]; [6],Bottom
CCCCCC(=O)CC [3-OCTANONE],Volatility,[1]; [3],6787.60 μg/l air
same,Type,[1]; [4],"TOP (perfuming compounds having a volatility ranging from 70,000 to 100 μg/l in air are referred to as “top notes”)"
CCCCCCC1CCCC(=O)O1 (centres unmarked) [6-hexyltetrahydro-2H-pyran-2-one],Volatility,[1]; [3],4.64 μg/l air
same,Type,[1]; [4],Bottom
same,Volatility,[1]; [10],4.64 μg/l air
same,Type,[1]; [11],Bottom
same,Volatility,"[1]; Table 9, gourmand note",4.64 μg/l air
same,Type,[1]; [9],Bottom
CC/C=C\C[C@H]1C(=O)CC[C@@H]1CC(=O)OC (racemic),Volatility,[1]; [3],1.59 μg/l air
same,Type,[1]; [4],Bottom
"CC1(C)C2CC[C@@]1(C)C(=O)C2 (single isomer, unassigned; (+))",Volatility,[1]; [3],555.04 μg/l air
same,Type,[1]; [4],"TOP (perfuming compounds having a volatility ranging from 70,000 to 100 μg/l in air are referred to as “top notes”)"
CC1(C)CCC[C@]2(C)[C@H]3CCO[C@]3(C)CC[C@@H]12,Type,[1]; [5],Bottom
Cc1ccc(OC(=O)C(C)C)cc1 [4-METHYLPHENYL ISOBUTYRATE],Volatility,[1]; [3],167.81 μg/l air
same,Type,[1]; [4],"TOP (perfuming compounds having a volatility ranging from 70,000 to 100 μg/l in air are referred to as “top notes”)"
"CC(C)(C)Cc1cccnc1 [3-(2,2-DIMETHYLPROPYL)PYRIDINE]",Volatility,[1]; [3],516.21 μg/l air
same,Type,[1]; [4],"TOP (perfuming compounds having a volatility ranging from 70,000 to 100 μg/l in air are referred to as “top notes”)"
"CCOC(=O)/C(C)=C/C(C)C [ethyl (2E)-2,4-dimethyl-2-pentenoate]",Volatility,[1]; [3],1618.37 μg/l air
same,Type,[1]; [4],"TOP (perfuming compounds having a volatility ranging from 70,000 to 100 μg/l in air are referred to as “top notes”)"
CC(=O)OCc1ccccc1 [benzyl acetate],Volatility,[1]; [3],507.38 μg/l air
same,Type,[1]; [4],"TOP (perfuming compounds having a volatility ranging from 70,000 to 100 μg/l in air are referred to as “top notes”)"
CC(C)=CCC/C(C)=C/CO,Volatility (μg/l air),"[1]; Table 7, citrus note",89.88 μg/l air
same,Type,[1]; [6],Middle
CC1CCC(=O)O1 (racemic) [(+−)-4-PENTANOLIDE],Volatility,[1]; [3],2355.15 μg/l air
same,Type,[1]; [4],"TOP (perfuming compounds having a volatility ranging from 70,000 to 100 μg/l in air are referred to as “top notes”)"
same,Volatility (μg/l air),"[1]; Table 7, citrus note",2355.15 μg/l air
same,Type,[1]; [6],Top
CC(C)CC(=O)O [3-METHYLBUTANOIC ACID],Odor Threshold,"[2]; Table 10, woody note",2.23E−04 μg/l air
C=CC(=C)CCC=C(C)C,Volatility,[1]; [3],15094.56 μg/l air
same,Type,[1]; [4],"TOP (perfuming compounds having a volatility ranging from 70,000 to 100 μg/l in air are referred to as “top notes”)"
CCCCCCCC1CCC(=O)O1 (racemic) [(+−)-5-heptyldihydro-2(3H)-furanone],Odor Threshold,[2]; [3],3.16E−05 μg/l air
same,Odor Value,[2]; [3],1.16E+05
same,Odor Threshold,[2]; [10],3.16E−05 μg/l air
same,Odor Value,[2]; [10],1.16E+05
same,Odor Threshold,"[2]; Table 9, gourmand note",3.16E−05 μg/l air
C=C1CCCC(C)(C)C1C(=O)OC (racemic),Volatility,[1]; [3],1089.25 μg/l air
same,Type,[1]; [4],"TOP (perfuming compounds having a volatility ranging from 70,000 to 100 μg/l in air are referred to as “top notes”)"
CCC(=O)CC(C)CC (centres unmarked) [5-METHYL-3-HEPTANONE],Volatility,[1]; [3],14141.42 μg/l air
same,Type,[1]; [4],"TOP (perfuming compounds having a volatility ranging from 70,000 to 100 μg/l in air are referred to as “top notes”)"
CC(C)=CCCC(C)=CCO,Type,[1]; [6],Middle
CCOC(=O)c1ccccc1 [ETHYL BENZOATE],Volatility,[1]; [3],1285.12 μg/l air
same,Type,[1]; [4],"TOP (perfuming compounds having a volatility ranging from 70,000 to 100 μg/l in air are referred to as “top notes”)"
